The test has as its target T1, horseradish peroxidase (HRP) tagged delF508-CFTR (Homo sapiens, UniProt P13569, DEL508-508).
T1 construct: expressed in transfected cells
Description: Measurement of delF508-CFTR-HRP surface expression in CFBE41o- cells.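 For DelF508-CFTR-HRP Amax %: percent efficacy relative to reference corrector lumacaftor.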 The format is cell-based. Particulars: CFBE41o- cells; for EC50: read-out: DelF508-CFTR-HRP EC50; for Emax: read-out: DelF508-CFTR-HRP Amax %. The text has this:
Measurement of delF508-CFTR-HRP Surface Expression in CFBE41o-Cells
This assay quantifies the cell surface expressions of the mutant CFTR channel using an extracellular HRP tag.
A cellular assay was developed to measure surface expression of horseradish peroxidase (HRP) tagged delF508-CFTR in the human bronchial epithelial immortalized CFBE41o-cell line (Phuan, P. W., et al, (2014) Molecular Pharmacology 86:42-51). Specifically, the HRP sequence was inserted into the fourth extracellular loop of delF508-CFTR and stably expressed in CFBE41o-cells. Cells were seeded in 384 well plate at a density of 5000 cells/well and incubated at 37° C. for 12 to 24 hours in medium (Gibco MEM #11095, 10% FBS, 10 mM HEPES, […], 200 μg/mL G418, 3 μg/mL Puromycin). The delF508-CFTR-HRP expression was induced with 500 ng/mL doxycycline (Sigma D-9891, dissolved in H2O and sterile filtered) in medium and the cells were incubated at 37° C. for 48h. Old medium was removed and fresh medium was added containing 500 ng/mL doxycycline and unknown test compound at required test concentration in DMSO, not exceeding 0.5% final DMSO concentration. The highest concentration tested was 10 μM with a 10-point concentration response curve using a 3-fold dilution. After addition of compounds, the cells were incubated for 24h at 37° C. On the final day, cells were washed four times in PBS containing 1 mM MgCl2 and 0.1 mM CaCl2. HRP-Substrate (SuperSignal ELISA Pico, Fisher #37069) 20 μl/well was added and the luminescence signal was determined (Viewlux, Perkin Elmer). Light was emitted upon addition of exogenous HRP-Substrate only when delF508-CFTR-HRP reached the cell surface and the HRP tag was accessible to the HRP-Substrate (note: HRP-Substrate cannot cross the lipid bilayer to reach delF508-CFTR-HRP misfolded within the cell).
The median activity for the lowest concentration of the compounds on each assay plate was calculated and this value was used to normalize the signal for each well on the respective plate. Three replicates at each concentrations for every compound were run to determine one EC50. The median value was determined and used to calculate compound activities as described below. Effective half maximal values (EC50) were calculated for each compound by performing logistic regression on measured dose-response data points using the equation:
[formula] where “Y” is the observed activity, “Bottom” is the lowest observed value, “Top” is the highest observed value, and the “Hill coefficient” gives the largest absolute value of the slope. The curve fitting is carried out by a curve fitting program implemented at GNF using Matlab (Mathworks).
The dose response curves also were used to calculate Fold Change (FC) using the equation: […]
Compound efficacy relative to the reference compound 3-(6-(1-(2,2-difluorobenzo[d][1,3]dioxol-5-yl)cyclopropane-1-carboxamido)-3-methylpyridin-2-yl)benzoic acid was determined using the following formula: […]

Where [1] appears, read: mean of at least two replicates.
Where [2] appears, read: delF508-CFTR-HRP surface expression.

Molecules are shown by their SMILES. Structures can show the parent of a compound that is named as a salt. Where two headings read alike, the source gives them in different places.

T1 sequence (P13569 with tags, fused parts or gaps DEL508-508): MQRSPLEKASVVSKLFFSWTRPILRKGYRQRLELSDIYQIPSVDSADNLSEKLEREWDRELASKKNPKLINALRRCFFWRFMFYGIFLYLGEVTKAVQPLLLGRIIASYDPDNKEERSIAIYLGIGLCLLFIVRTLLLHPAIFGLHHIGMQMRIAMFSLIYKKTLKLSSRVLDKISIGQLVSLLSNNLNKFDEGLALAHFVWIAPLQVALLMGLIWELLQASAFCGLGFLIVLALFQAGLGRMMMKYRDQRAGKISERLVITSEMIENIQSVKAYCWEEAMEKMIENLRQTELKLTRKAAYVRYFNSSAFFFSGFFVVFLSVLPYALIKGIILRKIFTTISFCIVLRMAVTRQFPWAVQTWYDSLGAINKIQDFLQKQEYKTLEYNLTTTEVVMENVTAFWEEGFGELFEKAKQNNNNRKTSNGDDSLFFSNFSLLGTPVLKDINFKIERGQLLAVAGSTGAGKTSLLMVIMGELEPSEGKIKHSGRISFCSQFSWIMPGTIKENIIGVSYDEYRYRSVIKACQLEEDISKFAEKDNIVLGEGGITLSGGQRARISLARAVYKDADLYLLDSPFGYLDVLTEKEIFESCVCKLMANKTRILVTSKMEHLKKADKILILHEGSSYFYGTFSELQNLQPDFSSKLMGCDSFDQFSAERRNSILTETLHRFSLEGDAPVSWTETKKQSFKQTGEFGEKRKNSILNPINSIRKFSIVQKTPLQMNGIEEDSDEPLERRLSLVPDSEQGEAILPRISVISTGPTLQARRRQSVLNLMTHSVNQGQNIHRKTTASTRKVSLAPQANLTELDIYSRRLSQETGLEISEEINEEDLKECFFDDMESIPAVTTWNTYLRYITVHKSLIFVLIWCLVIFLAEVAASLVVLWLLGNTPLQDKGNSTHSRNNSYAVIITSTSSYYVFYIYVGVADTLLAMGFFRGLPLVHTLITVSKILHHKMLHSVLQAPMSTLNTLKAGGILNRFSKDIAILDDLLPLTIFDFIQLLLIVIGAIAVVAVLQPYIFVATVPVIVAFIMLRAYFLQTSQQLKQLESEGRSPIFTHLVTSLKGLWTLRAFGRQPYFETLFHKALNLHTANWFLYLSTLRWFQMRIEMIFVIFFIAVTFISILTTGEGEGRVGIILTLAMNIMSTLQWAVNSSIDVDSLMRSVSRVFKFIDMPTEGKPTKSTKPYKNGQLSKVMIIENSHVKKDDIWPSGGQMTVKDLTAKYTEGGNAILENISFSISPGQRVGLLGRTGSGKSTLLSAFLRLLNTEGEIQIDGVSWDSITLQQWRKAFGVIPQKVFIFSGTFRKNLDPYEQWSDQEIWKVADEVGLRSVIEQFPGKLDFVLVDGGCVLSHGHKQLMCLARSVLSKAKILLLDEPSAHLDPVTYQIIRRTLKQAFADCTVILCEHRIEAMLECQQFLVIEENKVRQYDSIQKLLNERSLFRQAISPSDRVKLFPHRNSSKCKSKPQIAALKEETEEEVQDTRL

Regarding `CC(C)COc1ccccc1-c1nc(NS(=O)(=O)c2cccc(N3CCC(C)(C(=O)O)CC3)n2)ccc1C(F)(F)F` [Example 382, 1-(6-(N-(6-(2-isobutoxyphenyl)-5-(trifluoromethyl)pyridin-2-yl)sulfamoyl)pyridin-2-yl)-4-methylpiperidine-4-carboxylic Acid], under setting [1], the EC50 (usually the concentration giving half of the maximal effect) amounted to 711 nM. The Emax (surface expression Amax) is 504%.
The corresponding values for `COc1ccc(Cl)cc1-c1nc(NS(=O)(=O)c2cccc(N3CCCC(C)(C(=O)O)C3)n2)ccc1C(F)(F)F` (stereo not shown) [Example 432, 1-(6-(N-(6-(5-chloro-2-methoxyphenyl)-5-(trifluoromethyl)pyridin-2-yl)sulfamoyl)pyridin-2-yl)-3-methylpiperidine-3-carboxylic Acid] are 1920 nM and 596%.
As for `Cc1cccc(F)c1-c1nc(NS(=O)(=O)c2ccc(N)nc2)ccc1Cl` [Example 60, 6-amino-N-(5-chloro-6-(2-fluoro-6-methylphenyl)pyridin-2-yl)pyridine-3-sulfonamide], under setting [2], the Emax was 253% and the EC50 amounted to 2980 nM.
On to `Cc1cccc(C)c1-c1nc(NS(=O)(=O)c2cccc(N3CCC[C@@](C)(C(=O)O)C3)n2)ccc1Cl` [Example 448, (R)-1-(6-(N-(5-chloro-6-(2,6-dimethylphenyl)pyridin-2-yl)sulfamoyl)pyridin-2-yl)-3-methylpiperidine-3-carboxylic Acid], for which the EC50 under setting [1] was determined as 1490 nM.
As for `C[C@@]1(C(=O)O)CCCN(c2cccc(S(=O)(=O)Nc3ccc(C(F)(F)F)c(-c4ccccc4Cl)n3)n2)C1` [Example 421, (R)-1-(6-(N-(6-(2-chlorophenyl)-5-(trifluoromethyl)pyridin-2-yl)sulfamoyl)pyridin-2-yl)-3-methylpiperidine-3-carboxylic Acid], under setting [1], the EC50 came out at 2040 nM.
In the case of `O=S(=O)(Nc1ccc(Cl)c(-c2ccc(F)cc2Cl)n1)c1cccc(N2CCNCC2)n1` [Example 157, N-(5-chloro-6-(2-chloro-4-fluorophenyl)pyridin-2-yl)-6-(piperazin-1-yl)pyridine-2-sulfonamide], under setting [2], the Emax came to 180% and the EC50 turned out to be 4280 nM.
On to `COc1ccc(Cl)cc1-c1nc(NS(=O)(=O)c2cccc(N3CCC[C@@](C)(C(=O)O)C3)n2)ccc1C(F)(F)F` [Example 455, (R)-1-(6-(N-(6-(5-chloro-2-methoxyphenyl)-5-(trifluoromethyl)pyridin-2-yl)sulfamoyl)pyridin-2-yl)-3-methylpiperidine-3-carboxylic Acid], for which the EC50 under setting [1] was 1770 nM. The Emax (surface expression Amax) came out at 899%.
Regarding `Cc1ccccc1-c1nc(NS(=O)(=O)c2cccc(OC3COCC3=O)n2)ccc1C(F)(F)F` (racemic) [Example 292, 6-((4-oxotetrahydrofuran-3-yl)oxy)-N-(6-(o-tolyl)-5-(trifluoromethyl)pyridin-2-yl)pyridine-2-sulfonamide], under setting [2], the Emax was 225% and the EC50 amounted to 2970 nM.
The corresponding values for `Cc1cccc(C)c1-c1cc(C(F)(F)F)cc(NS(=O)(=O)c2cccc(N3CCN(C(=O)OC(C)(C)C)CC3)n2)n1` [Example 132, tert-butyl 4-(6-(N-(6-(2,6-dimethylphenyl)-4-(trifluoromethyl)pyridin-2-yl)sulfamoyl)pyridin-2-yl)piperazine-1-carboxylate] are 894% and 803 nM.
Regarding `Cc1ccc(NS(=O)(=O)c2cccc(N3CCC[C@@](C)(C(=O)O)C3)n2)nc1-c1ccccc1C1CC1` [Example 406, (R)-1-(6-(N-(6-(2-cyclopropylphenyl)-5-methylpyridin-2-yl)sulfamoyl)pyridin-2-yl)-3-methylpiperidine-3-carboxylic Acid], the EC50 under setting [1] was found to be 1520 nM. Also, the Emax (surface expression Amax) was 334%.
Take `Cc1cc(C)c(-c2nc(NS(=O)(=O)c3cccc(N)n3)ccc2Cl)c(C)c1` [Example 32, 6-amino-N-(5-chloro-6-mesitylpyridin-2-yl)pyridine-2-sulfonamide]: under setting [2], the Emax was determined as 412% and the EC50 came to 1640 nM.
The corresponding values for `O=S(=O)(Nc1ccc(Cl)c(-c2ccccc2Cl)n1)c1cccc(N2CCNCC2)n1` [Example 156, N-(5-chloro-6-(2-chlorophenyl)pyridin-2-yl)-6-(piperazin-1-yl)pyridine-2-sulfonamide] are 178% and 4030 nM.
The like results for `Cc1cccc(C)c1-c1nc(NS(=O)(=O)c2ccc(N)nc2)ccc1Cl` [Example 47, 6-amino-N-(5-chloro-6-(2,6-dimethylphenyl)pyridin-2-yl)pyridine-3-sulfonamide] were, in that order, 335% and 1400 nM.
The like results for `COC(=O)C1(O)CCN(c2cccc(S(=O)(=O)Nc3ccc(Cl)c(-c4c(C)cccc4C)n3)n2)CC1` [Example 260, methyl 1-(6-{[5-chloro-6-(2,6-dimethylphenyl)pyridin-2-yl]sulfamoyl}pyridin-2-yl)-4-hydroxypiperidine-4-carboxylate] were, in that order, 59.8% and 3800 nM.
In the case of `Cc1ccc(F)cc1-c1nc(NS(=O)(=O)c2cccc(N3CCCC4(CC4C(=O)O)C3)n2)ccc1C(F)(F)F` (stereo not shown) [Example 439, 5-(6-(N-(6-(5-fluoro-2-methylphenyl)-5-(trifluoromethyl)pyridin-2-yl)sulfamoyl)pyridin-2-yl)-5-azaspiro[2.5]octane-1-carboxylic Acid], the EC50 under setting [1] is 2220 nM. Where the note is “surface expression Amax”, the Emax amounted to 264%.
As to `Cc1cccc(C)c1-c1nc(NS(=O)(=O)c2cccc(N3CCC(N)(C(=O)O)CC3)n2)ccc1Cl` [Example 269, 4-amino-1-(6-{[5-chloro-6-(2,6-dimethylphenyl)pyridin-2-yl]sulfamoyl}pyridin-2-yl)piperidine-4-carboxylic Acid Hydrochloride], under setting [2], the Emax is 105% and the EC50 is 4000 nM.
In the case of `COc1ccc(NS(=O)(=O)c2cccc(N3CCC[C@@](C)(C(=O)O)C3)n2)nc1-c1ccccc1C` [Example 410, (R)-1-(6-(N-(5-methoxy-6-(o-tolyl)pyridin-2-yl)sulfamoyl)pyridin-2-yl)-3-methylpiperidine-3-carboxylic Acid], the EC50 under setting [1] was found to be 1920 nM. In addition, under “surface expression Amax”, the Emax was 210%.
With `Cc1ccc(F)c(-c2nc(NS(=O)(=O)c3cccc(N)n3)ccc2Cl)c1Cl` [Example 58, 6-amino-N-(5-chloro-6-(2-chloro-6-fluoro-3-methylphenyl)pyridin-2-yl)pyridine-2-sulfonamide], under setting [2], the Emax stood at 270% and the EC50 is 1780 nM.
For `CC1(C(=O)O)CCN(c2cccc(S(=O)(=O)Nc3ccc(Cl)c(-c4ccccc4C4CC4)n3)n2)CC1` [Example 430, 1-(6-(N-(5-chloro-6-(2-cyclopropylphenyl)pyridin-2-yl)sulfamoyl)pyridin-2-yl)-4-methylpiperidine-4-carboxylic Acid], the EC50 under setting [1] was 1710 nM. The Emax (surface expression Amax) came out at 370%.
`Nc1cccc(S(=O)(=O)Nc2ccc(Cl)c(-c3ccccc3C(F)F)n2)n1` [Example 65, 6-amino-N-(5-chloro-6-(2-(difluoromethyl)phenyl)pyridin-2-yl)pyridine-2-sulfonamide]: under setting [2], the Emax is 220% and the EC50 was found to be 1540 nM.
For `C[C@@]1(C(=O)O)CCCN(c2cccc(S(=O)(=O)Nc3cccc(-c4ccccc4C4CC4)n3)n2)C1` [Example 405, (R)-1-(6-(N-(6-(2-cyclopropylphenyl)pyridin-2-yl)sulfamoyl)pyridin-2-yl)-3-methylpiperidine-3-carboxylic Acid], the EC50 under setting [1] is 2480 nM. Also, where the note is “surface expression Amax”, the Emax is 235%.

These data come from patent US11066369B2, “N-(pyridin-2-yl)pyridine-sulfonamide derivatives and their use in the treatment of disease” (Novartis AG, priority 2016, dated 2021).
